Results from patent publication US8585782B2, “Use of specific bis(biphenyl)triazine derivatives and mixtures thereof as UV absorbers” (BASF SE, priority 2010, dated 2013).

Assay: Measurement of solubility in capric/caprylic triglyceride
Format: physicochemical
Conditions: commercial triazine derivatives, state-of-the-art comparison

| Structure (SMILES) | solubility in the cosmetic oil capric/caprylic triglyceride |
| --- | --- |
| CCCCC(CC)COC(=O)c1ccc(Nc2nc(Nc3ccc(C(=O)OCC(CC)CCCC)cc3)nc(Nc3ccc(C(=O)OCC(CC)CCCC)cc3)n2)cc1 (centres unmarked) [EHT, Ethylhexyl Triazone] | 3% |
| CCCCC(CC)COc1ccc(-c2nc(-c3ccc(OC)cc3)nc(-c3ccc(OCC(CC)CCCC)cc3O)n2)c(O)c1 (centres unmarked) [Tinosorb S] | 6% |
